These results are taken from paper PMC9569447 (International Journal of Molecular Sciences, 2022).

Where two headings read alike, the source gives them in different places.

Data set [1] relates to diet-induced obese (DIO) Sprague Dawley rats. As to the kind of experiment: Post-treatment serum levels after the 22-day treatment. It is filed as in vivo, rat. The note with it: serum, 2 h post final injection after 22 days; mean ± SEM; n = 6 (Oxytocin n = 4). The procedure: Cardiac puncture was used to collect blood for analysis 2 h post final injection. Commercially available enzyme-linked immunosorbent assays (ELISA) were used for quantitative assessment of leptin (cat. # EZRL-83K; MilliporeSigma, Burlington, MA, USA), insulin (cat. # EZRMI-13K; MilliporeSigma, Burlington, MA, USA), and adiponectin (cat. # EZRAPD-62K MilliporeSigma, Burlington, MA, USA). Serum samples were diluted 1:500 for the adiponectin ELISA using the sample diluent provided with the kit. All ELISAs were completed following the manufacturers recommendations. Levels of glucose, cholesterol (total, HDL, and calculated LDL), triglycerides, ALT, and AST were determined in the serum on a Modular P chemistry analyzer (Roche Diagnostics, Risch-Rotkreuz, Switzerland) by the University of Washington Nutrition and Obesity Research Center’s Analytic Core (Seattle, WA, USA).

The conditions of data set [2]: rat, in vivo, sc; cited from earlier work.
For data set [3] the following is noted: mouse, in vivo, sc; cited from earlier work.
For data set [4] the following is noted: native OXT; cited from earlier work. The text has this: This OXT analog is a full agonist at OXT receptor, and it addressed some of the limitations of using OXT as a weight loss therapeutic.

As usually defined, the Cmax is the maximum level reached in the sampled fluid or tissue. For orientation: Tmax means the time from dosing to the highest level. With `CC[C@H](C)[C@@H]1NC(=O)[C@H](Cc2ccc(O)cc2)NC(=O)[C@@H](N)CSSC[C@@H](C(=O)N2CCC[C@H]2C(=O)N[C@@H](CC(C)C)C(=O)NCC(N)=O)NC(=O)[C@H](CC(N)=O)NC(=O)[C@H](CCC(N)=O)NC1=O` [OXT, oxytocin], in data set [1], the ALT is recorded as 40 ± 5 U/L and the AST amounted to 128 ± 22 U/L. Besides, in data set [2], the CLplasma is 17.1 mL/min/kg, the T1/2 was 7.2 min and the Vd was 0.085 L/kg. For the same compound, in data set [3], the Cmax is recorded as 216 nM, the “Free Cmax” value is reported as 191 nM, the T1/2 was 30 min and the Tmax is 15 min. For the same compound, in data set [4], the half-life in vivo is roughly 5 min.
